{"source": "patent US9546401B2", "about": "“Assays and methods for selecting a treatment regimen for a subject with depression” (The General Hospital Corporation, priority 2011, dated 2017)", "key": {"[1]": {"system": "MDD patients, remitters at end of double-blind phase", "details": "for Relapsers (HAM-D-17 > 15) during 12-month maintenance phase: 15 mg/day as adjuvant", "description": "During each visit, patients are administered the HAM-D-28, the CGI, the QIDS-SR, the SAFTEE-SI, the MGH-CPFQ, and the MGH-SFQ (See, e.g., Table 10 below). […] Subjects are also allowed to change their antidepressant during the course of the follow-up, if deemed appropriate. For patients who refuse the 12 months of free follow-up care, a referral to a psychiatrist is offered."}, "[2]": {"system": "SSRI-resistant outpatients with major depressive disorder (MDD)", "details": "for CGI-S Mean score reduction / HDRS-17 % Remission / HDRS-17 % Response / HDRS-17 Mean score reduction / QIDS-SR % Remission / QIDS-SR % Response / QIDS-SR Mean score reduction: 15 mg/day adjunct to an SSRI", "excerpt": "Using the sequential parallel design […] For those randomly assigned to the placebo/placebo sequence, both responders and non-responders to placebo during the first phase (n=25) remain on placebo during the second phase. […] Data from the previous double-blind, placebo-controlled study (Trial 1) can be pooled into the instant study (Trial 2) to provide a more accurate estimate of the placebo effect size, with a weighted average from the two Phases 1 (one from Trial 1 and one from Trial 2) and two Phases 2 (one from Trial 1 and one from Trial 2).\nAll patients are asked to take one tablet of blinded study medication in the morning, in addition to their stable dose of ongoing SSRI treatment. […] Therefore, for patients randomly assigned to the placebo/placebo sequence, the tablets of study medication are placebo during both phases of the study.\nThe primary efficacy measure can include the change in 17-item Hamilton Rating Scale for Depression (HAM-D-17) score. […] A remission is, for example, defined as a HAM-D-17 score less than 8 at endpoint. Secondary measures of efficacy can include change in CGI-severity, with “clinical response defined” as CGI-S of 1 or 2 at endpoint. Patients with a CGI-I score greater than 5 at any post baseline visit or a 50 percent or greater worsening of depressive symptoms from baseline to that visit are discontinued from the study. Subjects are also discontinued from the study with any emergence of suicidality, homicidality, mania, or psychosis. Additional exemplary instruments that can be administered according to the study schedule include the following: • (1) Structured Clinical Interview for DSM-IV: The SCID-I/P, administered by the clinician, proceeds by modules to diagnose the different Axis I disorders. Questions are asked exactly as written, and each is based on the individual criteria from DSM-IV. Answers are generally rated on a scale of 1-3 (1=doubtful, 2=probable, 3=definite), and, based on the number of positive answers, a diagnosis is determined by a clinician. While the entire SCID-I/P is administered at screen, the mood module is administered at each follow up visit. • (2) The MGH Antidepressant Treatment History Questionnaire (MGH-ATR): The MGH-ATR provides specific criteria for the adequate dose and adequate length of a trial for it to be considered a failure, thus allowing clinicians to systematically collect data aimed at assessing the degree of treatment-resistance of the current major depressive episode. • (3) The 28-item Hamilton Depression Scale (HAM-D-28): This version allows scoring of the HAM-D-17, 21-, 25-, and 28-item scales. This instrument is completed by the clinician by using a structured interview and defined anchor points, and aims to quantify the degree of depression over the past 7 days. The HAM-D is the most widely studied instrument for depression, and its reliability and validity are high. • (4) Clinical Global Impressions—Severity and Improvement (CGI-S, CGI-I): These two instruments are scored 1-7 by the clinician based on assessment of the patient's clinical status. They measure, based on history and scores on other instruments: a) Depressive severity (CGI-S) and b) Clinical Improvement (CGI-I). […] Safety Measurements\nData are entered and error-checked at each clinical site involved in the study. Study staff and subjects may have the option to enter self-evaluations into the system directly using DatStat Illume™. The process of data entry is supervised by the DCRP staff. Once the data set is entered and checked, analyses are conducted. Both a completer analysis of all patients finishing the trial and an intent-to-treat analysis examining all patients enrolled into the trial are used to define the severity of depression at endpoint. Examination of both study completers and all patients randomized can provide the broadest assessment of the effects of treatment in trials of such kind."}, "[3]": {"details": "SSRI + 15 mg/day versus SSRI + placebo, after 30 days"}}, "note": "Where two headings read alike, the source gives them in different places.", "data": [{"compound": "CN1c2c(nc(N)[nH]c2=O)NC[C@@H]1CNc1ccc(C(=O)N[C@@H](CCC(=O)O)C(=O)O)cc1", "note": "[6(S)-5-MTHF, 6(S)-5-methyltetrahydrofolate]", "values": [{"measurement": "Relapsers (HAM-D-17 > 15) during 12-month maintenance phase", "setting": "[1]; Trial 1, 2 remitters entering maintenance", "result": 0}, {"measurement": "Relapsers (HAM-D-17 > 15) during 12-month maintenance phase", "setting": "[1]; Trial 2, 9 remitters entering maintenance", "result": 0}, {"measurement": "relapse during 12-month maintenance phase", "setting": "[1]; remitters at end of double-blind phase, 15 mg/day adjunctive", "result": "did not have a relapse"}, {"measurement": "CGI-S Mean score reduction", "setting": "[2]; Phase 1", "result": "−1.3"}, {"measurement": "HDRS-17 % Remission", "setting": "[2]; Phase 1", "result": 15.7, "unit": "%"}, {"measurement": "HDRS-17 % Response", "setting": "[2]; Phase 1", "result": 36.8, "unit": "%"}, {"measurement": "HDRS-17 Mean score reduction", "setting": "[2]; Phase 1", "result": "−7.5"}, {"measurement": "QIDS-SR % Remission", "setting": "[2]; Phase 1", "result": 21.0, "unit": "%"}, {"measurement": "QIDS-SR % Response", "setting": "[2]; Phase 1", "result": 36.8, "unit": "%"}, {"measurement": "QIDS-SR Mean score reduction", "setting": "[2]; Phase 1", "result": "−8.1"}, {"measurement": "CGI-S Mean score reduction", "setting": "[2]; Phase 2", "result": "−0.5"}, {"measurement": "HDRS-17 % Remission", "setting": "[2]; Phase 2", "result": 11.1, "unit": "%"}, {"measurement": "HDRS-17 % Response", "setting": "[2]; Phase 2", "result": 27.7, "unit": "%"}, {"measurement": "HDRS-17 Mean score reduction", "setting": "[2]; Phase 2", "result": "−3.8"}, {"measurement": "QIDS-SR % Remission", "setting": "[2]; Phase 2", "result": 5.5, "unit": "%"}, {"measurement": "QIDS-SR % Response", "setting": "[2]; Phase 2", "result": 11.1, "unit": "%"}, {"measurement": "QIDS-SR Mean score reduction", "setting": "[2]; Phase 2", "result": "−1.3"}, {"measurement": "CGI-S Mean score reduction", "setting": "[2]; Pooled Phases 1 and 2", "result": "−0.92"}, {"measurement": "HDRS-17 % Remission", "setting": "[2]; Pooled Phases 1 and 2", "result": 13.4, "unit": "%"}, {"measurement": "HDRS-17 % Response", "setting": "[2]; Pooled Phases 1 and 2", "result": 32.3, "unit": "%"}, {"measurement": "HDRS-17 Mean score reduction", "setting": "[2]; Pooled Phases 1 and 2", "result": "−5.58"}, {"measurement": "QIDS-SR % Remission", "setting": "[2]; Pooled Phases 1 and 2", "result": 13.3, "unit": "%"}, {"measurement": "QIDS-SR % Response", "setting": "[2]; Pooled Phases 1 and 2", "result": 23.9, "unit": "%"}, {"measurement": "QIDS-SR Mean score reduction", "setting": "[2]; Pooled Phases 1 and 2", "result": "−4.7"}, {"measurement": "degree of improvement (HAM-D-17, QIDS-SR, CGI-S)", "setting": "[2]; [3]", "result": "greater degree of reduction in the scores of HAM-D-17, QIDS-SR and CGI-S"}, {"measurement": "percentage of remitters (HAM-D-17 or QIDS-SR)", "setting": "[2]; [3]", "result": "no significant difference"}, {"measurement": "percentage of responders (50% or greater reduction in HAM-D-17)", "setting": "[2]; [3]", "result": "response rate is higher for the 6(S)-5-MTHF group than the placebo group"}]}]}
